Laboratory results taken from patent US10072023B2, “Diarylethene compounds and uses thereof” (SWITCH MATERIALS, INC., priority 2011, dated 2018).

Key:
[1] = Absorbance at photostationary state (PSS) under simulated sunlight or 365 nm light; format: physicochemical; parameters: λ max: unit not given here; conditions: for Absorbance at PSS, 365 nm: 365 nm light source; for Absorbance at PSS, 365 nm / Absorbance at PSS, full / Absorbance at PSS, +UV / λ max: 2.0×10^−5 M in triglyme; for sensitivity index: ratio of PSS under 365 nm light to PSS under full spectrum light (without UV blocking film); for Absorbance at PSS, full: simulated sunlight (QSUN solar simulator), no UV blocking film; for Absorbance at PSS, +UV: simulated sunlight with UV blocking film (cutoff 370 nm); for λ max: wavelength of maximum absorbance in the visible range, ring-closed isoform
Method in brief: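 Compounds at 2.0×10^−5 M in triglyme, photofaded with visible light, then irradiated with simulated sunlight (xenon arc) or 365 nm light until the UV/Vis spectrum stabilized. Also irradiated through a UV-blocking film (370 nm cutoff); sensitivity index is PSS under 365 nm divided by PSS under full spectrum.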

[2] = Solubility in indicated solvent; format: physicochemical; conditions: % wt soluble in triglyme
Description: A compound with greater solubility allows for a formulation or material with a greater concentration of coloured molecule to be incorporated into a composition. This may allow for increasing the contrast ratio for a compound with a lesser absorbance at PSS. Inclusion of a solubilizing group in a compound according to various embodiments of the invention may increase solubility. Examples of solubilizing groups may include alkoxy or siloxy groups.

## Cc1cc(-c2sc(C)c(C)c2C2=C(c3c(-c4cc(C)c(C)s4)sc(C)c3C)C(F)(F)C(F)(F)C2(F)F)sc1C [S039, 3,3′-(perfluorocyclopent-1-ene-1,2-diyl)bis(4,4′,5,5′-tetramethyl-2,2′-bithiophene)]
[1]
  Absorbance at PSS, 365 nm: 0.372
  sensitivity index: 7.75
  Absorbance at PSS, full: 0.048
  Absorbance at PSS, +UV: 0.028
  λ max: 570
[2]
  Solubility: 2 % wt

## FC(F)(F)c1ccc(-c2cc(C3=C(c4cc(-c5ccc(C(F)(F)F)cc5)sc4-c4ccc(C(F)(F)F)cc4)C(F)(F)C(F)(F)C3(F)F)c(-c3ccc(C(F)(F)F)cc3)s2)cc1 [S044, 3,3′-(perfluorocyclopent-1-ene-1,2-diyl)bis(2,5-bis(4-(trifluoromethyl)phenyl)thiophene)]
[1]
  Absorbance at PSS, 365 nm: 0.222
  sensitivity index: 3.58
  Absorbance at PSS, full: 0.062
  Absorbance at PSS, +UV: 0.027
  λ max: 605
[2]
  Solubility: 1 % wt

## CC(C)(C)c1ccc(-c2cc(C3=C(c4cc(-c5ccc(C(C)(C)C)cc5)sc4-c4cccs4)C(F)(F)C(F)(F)C3(F)F)c(-c3cccs3)s2)cc1 [S049, 3,3″-(perfluorocyclopent-1-ene-1,2-diyl)bis(5-(4-(tert-butyl)phenyl)-2,2′-bithiophene)]
[1]
  Absorbance at PSS, 365 nm: 0.217
  sensitivity index: 2.49
  Absorbance at PSS, full: 0.087
  Absorbance at PSS, +UV: 0.044
  λ max: 625
[2]
  Solubility: 2 % wt

## CC(C)(C)c1ccc(-c2sc(-c3cccs3)cc2C2=C(c3cc(-c4cccs4)sc3-c3ccc(C(C)(C)C)cc3)C(F)(F)C(F)(F)C2(F)F)cc1 [S052, 4,4″-(perfluorocyclopent-1-ene-1,2-diyl)bis(5-(4-(tert-butyl)phenyl)-2,2′-bithiophene)]
[1]
  Absorbance at PSS, 365 nm: 0.318
  sensitivity index: 1.54
  Absorbance at PSS, full: 0.206
  Absorbance at PSS, +UV: 0.116
  λ max: 630
[2]
  Solubility: 1 % wt

## COc1ccc(-c2cc(C3=C(c4cc(-c5ccc(OC)cc5)sc4-c4ccc(OC)cc4)C(F)(F)C(F)(F)C3(F)F)c(-c3ccc(OC)cc3)s2)cc1 [S054, 3,3′-(perfluorocyclopent-1-ene-1,2-diyl)bis(2,5-bis(4-methoxyphenyl)thiophene)]
[1]
  Absorbance at PSS, 365 nm: 0.268
  sensitivity index: 2.53
  Absorbance at PSS, full: 0.106
  Absorbance at PSS, +UV: 0.056
  λ max: 630
[2]
  Solubility: 5-6 % wt

## CC(C)(C)c1ccc(-c2sc(-c3ccccc3)cc2C2=C(c3cc(-c4ccccc4)sc3-c3ccc(C(C)(C)C)cc3)C(F)(F)C(F)(F)C2(F)F)cc1 [S057, 3,3′-(perfluorocyclopent-1-ene-1,2-diyl)bis(2-(4-tert-butylphenyl)-5-phenylthiophene)]
[1]
  Absorbance at PSS, 365 nm: 0.204
  sensitivity index: 2.58
  Absorbance at PSS, full: 0.079
  Absorbance at PSS, +UV: 0.033
  λ max: 610
[2]
  Solubility: 1.5 % wt

## CC(C)(C)c1ccc(-c2sc(-c3ccc(Cl)cc3)cc2C2=C(c3cc(-c4ccc(Cl)cc4)sc3-c3ccc(C(C)(C)C)cc3)C(F)(F)C(F)(F)C2(F)F)cc1 [S060]
[1]
  Absorbance at PSS, 365 nm: 0.22
  sensitivity index: 2.06
  Absorbance at PSS, full: 0.107
  Absorbance at PSS, +UV: 0.038
  λ max: 615
[2]
  Solubility: 1 % wt

## CC(C)(C)c1ccc(-c2sc(-c3ccc(C4(C)OCCO4)cc3)cc2C2=C(c3cc(-c4ccc(C5(C)OCCO5)cc4)sc3-c3ccc(C(C)(C)C)cc3)C(F)(F)C(F)(F)C2(F)F)cc1 [S066, 2,2′-((4,4′-(perfluorocyclopent-1-ene-1,2-diyl)bis(5-(4-(tert-butyl)phenyl)thiophene-4,2-diyl))bis(4,1-phenylene))bis(2-methyl-1,3-dioxolane)]
[1]
  Absorbance at PSS, 365 nm: 0.226
  sensitivity index: 2.28
  Absorbance at PSS, full: 0.099
  Absorbance at PSS, +UV: 0.049
  λ max: 615
[2]
  Solubility: 2.5 % wt
